Changes are numbered by the printed parent chain.
Key:
Type in all cases: cell-based
Conditions in all cases: Cos-7, mean±s.e.m., read-out: pEC50 mutant (converted)
[1] = biological target: T1, CT(a) receptor, W79A mutant (Homo sapiens, UniProt P30988, W79A); assay: cAMP assay, W79A CT(a)
T1 sequence (P30988 25-474 W79A): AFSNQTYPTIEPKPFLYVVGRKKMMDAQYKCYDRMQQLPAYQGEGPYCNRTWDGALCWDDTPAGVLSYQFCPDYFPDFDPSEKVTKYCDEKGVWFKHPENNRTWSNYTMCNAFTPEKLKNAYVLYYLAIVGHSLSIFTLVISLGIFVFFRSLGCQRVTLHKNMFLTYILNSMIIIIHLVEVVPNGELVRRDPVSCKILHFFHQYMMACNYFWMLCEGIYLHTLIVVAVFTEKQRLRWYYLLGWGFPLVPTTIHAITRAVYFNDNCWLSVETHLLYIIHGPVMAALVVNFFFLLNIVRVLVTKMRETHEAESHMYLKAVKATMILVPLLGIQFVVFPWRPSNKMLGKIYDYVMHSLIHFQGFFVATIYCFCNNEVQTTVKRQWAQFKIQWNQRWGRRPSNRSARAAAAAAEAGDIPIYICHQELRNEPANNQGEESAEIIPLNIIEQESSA
Description: (§1) This is the insert-negative form of the receptor and is referred to as hCT(a), to comply with International Union of Pharmacology guidelines. Myc tagged RAMP1 and untagged RAMP3 constructs were used for AMY receptor experiments.
(§2) Primers were purchased from Integrated DNA Technologies Ltd (Coralville, IA, USA). Kapa HiFi readymix (Kapa Biosystems, Wilmington, MA, USA) or Primestar HS enzymes (TaKaRa Bio, Kyoto, Japan) were substituted for Pfu polymerase.
(§3) After stimulation the reaction was stopped by removing media and adding 50 μl per well of ice-cold absolute ethanol. Plates were stored at −30 °C for up to 4 days before the measurement of cAMP was performed.

[2] = biological target: T2, CT(a) receptor, R126A mutant (Homo sapiens, UniProt P30988, R126A); assay: cAMP assay, R126A CT(a)
T2 sequence (P30988 25-474 R126A): T1 sequence (P30988 25-474 W79A) with A55W, R102A
Description: as §1, §2, §3

[3] = biological target: T3, CT(a) receptor, W128A mutant (Homo sapiens, UniProt P30988, W128A); assay: cAMP assay, W128A CT(a)
T3 sequence (P30988 25-474 W128A): T1 sequence (P30988 25-474 W79A) with A55W, W104A
Description: as §1, §2, §3

[4] = biological target: T4, CT(a) receptor, Y131A mutant (Homo sapiens, UniProt P30988, Y131A); assay: cAMP assay, Y131A CT(a)
T4 sequence (P30988 25-474 Y131A): T1 sequence (P30988 25-474 W79A) with A55W, Y107A
Description: as §1, §2, §3

EC50 [1]: 447 nM
EC50 [2]: 20.9 nM
EC50 [3]: 182 nM
EC50 [4]: 309 nM
Compound: CC(C)C[C@H](NC(=O)CNC(=O)[C@H](C)NC(=O)[C@H](CC(C)C)NC(=O)[C@H](CCCNC(=N)N)NC(=O)[C@H](Cc1cnc[nH]1)NC(=O)[C@@H](NC(=O)[C@@H](NC(=O)[C@@H]1CSSC[C@H](NC(=O)[C@H](C)N)C(=O)N[C@@H](CC(=O)O)C(=O)N[C@@H]([C@@H](C)O)C(=O)N[C@@H](C)C(=O)N[C@@H]([C@@H](C)O)C(=O)N1)C(C)C)[C@@H](C)O)C(=O)N[C@@H](CC(C)C)C(=O)N[C@@H](CO)C(=O)N[C@@H](CCCNC(=N)N)C(=O)N[C@@H](CO)C(=O)NCC(=O)NCC(=O)N[C@H](C(=O)N[C@H](C(=O)N[C@@H](CCCCN)C(=O)N[C@@H](CC(N)=O)C(=O)N[C@@H](CC(N)=O)C(=O)N[C@@H](Cc1ccccc1)C(=O)N[C@H](C(=O)N1CCC[C@H]1C(=O)N[C@H](C(=O)N[C@@H](CC(N)=O)C(=O)N[C@H](C(=O)NCC(=O)N[C@@H](CO)C(=O)N[C@@H](CCCCN)C(=O)N[C@@H](C)C(=O)N[C@@H](Cc1ccccc1)C(N)=O)C(C)C)[C@@H](C)O)C(C)C)C(C)C)C(C)C [hαCGRP, human αCGRP]

Reference: article PMC4869360, “An allosteric role for receptor activity-modifying proteins in defining GPCR pharmacology” (Cell Discovery, 2016)
